ChEMBL document CHEMBL1909046, “DrugMatrix in vitro pharmacology data”

Columns and labels:
[1] = target: Tyrosine-protein kinase Fyn (Homo sapiens, UniProt P06241); assay: biochemical; assay type: cell-based, Insect cells;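 also: enzymatic inhibition of Fyn kinase activity measured with Poly(Glu:Tyr) as the phosphorylation substrate; in other assays of this panel Not Active means under 50% inhibition at 10 µM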
[2] = target: Sodium-dependent dopamine transporter (Homo sapiens, UniProt Q01959); assay: DRUGMATRIX: Dopamine Transporter radioligand binding (ligand: [125I] RTI-55); assay type: cell membranes, CHO-K1, Membrane; conditions: Not Active = under 50% inhibition at 10 µM
[3] = target: Melanocortin receptor 4 (Homo sapiens, UniProt P32245); assay type: cell membranes, HEK293, Membrane; conditions: hek293; also: in other assays of this panel Not Active means under 50% inhibition at 10 µM
[4] = target: Estrogen receptor beta (Homo sapiens, UniProt Q92731); conditions: sf9; also: in other assays of this panel Not Active means under 50% inhibition at 10 µM
[5] = target: Mitogen-activated protein kinase 14 (Homo sapiens, UniProt Q16539); design: species or system Escherichia coli;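 also: inhibition of p38alpha enzyme activity in a biochemical kinase assay, with myelin basic protein serving as substrate; in other assays of this panel Not Active means under 50% inhibition at 10 µM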
[6] = target: Mu-type opioid receptor (Homo sapiens, UniProt P35372); assay: DRUGMATRIX: Opiate mu (OP3, MOP) radioligand binding (ligand: [3H] Diprenorphine); assay type: cell membranes, CHO-K1, Membrane; conditions: cho-k1; Not Active = under 50% inhibition at 10 µM
Chain of Mu-type opioid receptor (P35372 whole entry): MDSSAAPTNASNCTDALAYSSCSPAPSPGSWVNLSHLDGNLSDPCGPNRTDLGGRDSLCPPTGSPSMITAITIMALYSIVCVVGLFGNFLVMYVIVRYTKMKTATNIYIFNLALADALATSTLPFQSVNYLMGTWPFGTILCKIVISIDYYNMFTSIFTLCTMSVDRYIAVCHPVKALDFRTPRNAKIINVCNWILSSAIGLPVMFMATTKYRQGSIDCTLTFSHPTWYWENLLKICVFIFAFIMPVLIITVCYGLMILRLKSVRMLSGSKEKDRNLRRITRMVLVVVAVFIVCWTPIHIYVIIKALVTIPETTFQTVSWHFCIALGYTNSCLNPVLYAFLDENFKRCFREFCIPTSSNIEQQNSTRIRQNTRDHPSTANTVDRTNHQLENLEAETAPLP

Chain of Sodium-dependent dopamine transporter (Q01959 whole entry): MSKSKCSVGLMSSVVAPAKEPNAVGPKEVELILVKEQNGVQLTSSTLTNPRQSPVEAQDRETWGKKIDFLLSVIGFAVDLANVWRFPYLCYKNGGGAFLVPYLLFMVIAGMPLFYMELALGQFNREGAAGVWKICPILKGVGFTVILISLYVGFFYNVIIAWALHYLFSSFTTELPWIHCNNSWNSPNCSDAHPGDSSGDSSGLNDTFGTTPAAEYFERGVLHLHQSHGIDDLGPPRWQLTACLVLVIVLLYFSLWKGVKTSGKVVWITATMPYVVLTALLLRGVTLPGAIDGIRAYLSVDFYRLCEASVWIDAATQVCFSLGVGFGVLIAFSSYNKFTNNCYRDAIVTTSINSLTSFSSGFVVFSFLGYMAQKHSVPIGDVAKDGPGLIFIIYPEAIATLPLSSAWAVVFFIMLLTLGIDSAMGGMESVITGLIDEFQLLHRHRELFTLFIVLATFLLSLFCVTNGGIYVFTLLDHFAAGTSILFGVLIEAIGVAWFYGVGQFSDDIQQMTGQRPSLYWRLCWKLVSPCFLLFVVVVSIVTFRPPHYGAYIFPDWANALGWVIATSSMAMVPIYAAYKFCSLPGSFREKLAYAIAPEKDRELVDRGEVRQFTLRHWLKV
Chain of Melanocortin receptor 4 (P32245 whole entry): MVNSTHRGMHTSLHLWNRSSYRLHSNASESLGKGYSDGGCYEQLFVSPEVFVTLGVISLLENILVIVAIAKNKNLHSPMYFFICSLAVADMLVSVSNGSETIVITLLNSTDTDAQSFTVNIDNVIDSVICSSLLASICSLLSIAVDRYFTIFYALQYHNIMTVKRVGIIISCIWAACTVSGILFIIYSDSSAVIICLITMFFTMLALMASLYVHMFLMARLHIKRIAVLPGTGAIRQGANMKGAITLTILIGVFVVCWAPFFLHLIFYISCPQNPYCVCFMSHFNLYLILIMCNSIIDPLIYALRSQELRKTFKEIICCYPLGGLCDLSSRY
Chain of Estrogen receptor beta (Q92731 whole entry): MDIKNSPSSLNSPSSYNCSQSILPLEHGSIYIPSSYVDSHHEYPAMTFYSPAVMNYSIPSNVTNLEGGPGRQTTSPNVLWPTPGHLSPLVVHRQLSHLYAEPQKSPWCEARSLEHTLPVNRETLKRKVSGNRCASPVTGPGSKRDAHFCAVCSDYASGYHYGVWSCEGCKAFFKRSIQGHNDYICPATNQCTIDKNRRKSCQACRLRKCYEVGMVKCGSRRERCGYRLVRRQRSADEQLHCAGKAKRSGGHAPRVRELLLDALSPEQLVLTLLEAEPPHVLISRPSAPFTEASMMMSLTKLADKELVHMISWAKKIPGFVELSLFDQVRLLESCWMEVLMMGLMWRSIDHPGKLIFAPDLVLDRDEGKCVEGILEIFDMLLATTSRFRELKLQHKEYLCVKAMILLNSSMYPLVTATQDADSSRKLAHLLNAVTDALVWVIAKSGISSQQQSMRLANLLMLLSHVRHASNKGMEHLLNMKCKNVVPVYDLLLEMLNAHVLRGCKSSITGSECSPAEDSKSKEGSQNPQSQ
Chain of Mitogen-activated protein kinase 14 (Q16539 whole entry): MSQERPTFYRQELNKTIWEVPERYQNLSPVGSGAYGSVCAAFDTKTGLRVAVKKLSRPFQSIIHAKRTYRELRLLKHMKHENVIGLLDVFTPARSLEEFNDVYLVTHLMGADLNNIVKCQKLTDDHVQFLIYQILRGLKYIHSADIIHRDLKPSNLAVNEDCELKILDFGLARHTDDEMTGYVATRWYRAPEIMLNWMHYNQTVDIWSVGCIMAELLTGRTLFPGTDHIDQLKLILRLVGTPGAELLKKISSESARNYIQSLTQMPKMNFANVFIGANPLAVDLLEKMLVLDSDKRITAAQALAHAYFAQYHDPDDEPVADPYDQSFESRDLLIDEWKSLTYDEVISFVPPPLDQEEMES
Chain of Tyrosine-protein kinase Fyn (P06241 whole entry): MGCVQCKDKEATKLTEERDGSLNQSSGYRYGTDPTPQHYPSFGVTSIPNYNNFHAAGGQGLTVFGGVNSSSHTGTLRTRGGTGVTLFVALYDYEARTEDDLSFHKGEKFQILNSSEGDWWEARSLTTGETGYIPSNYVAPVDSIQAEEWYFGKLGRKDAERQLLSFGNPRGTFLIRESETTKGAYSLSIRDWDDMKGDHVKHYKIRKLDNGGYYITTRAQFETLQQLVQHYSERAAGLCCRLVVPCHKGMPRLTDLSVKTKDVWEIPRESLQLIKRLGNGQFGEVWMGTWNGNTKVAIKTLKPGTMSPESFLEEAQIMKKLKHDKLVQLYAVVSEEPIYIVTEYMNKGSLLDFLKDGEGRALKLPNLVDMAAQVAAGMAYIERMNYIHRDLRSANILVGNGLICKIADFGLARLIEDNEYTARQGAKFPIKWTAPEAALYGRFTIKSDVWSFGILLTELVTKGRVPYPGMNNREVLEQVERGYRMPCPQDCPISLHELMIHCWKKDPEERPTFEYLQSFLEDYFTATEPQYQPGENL

| Compound | IC50 ([1]; insect cells) | IC50 ([2]; cho-k1) | IC50 [3] | IC50 [4] | IC50 [5] | IC50 [6] | also measured |
| --- | --- | --- | --- | --- | --- | --- | --- |
| CC(C)CN(C[C@@H](O)[C@H](Cc1ccccc1)NC(=O)O[C@H]1CCOC1)S(=O)(=O)c1ccc(N)cc1 | Not Active | Not Active | Not Active | Not Active | Not Active | Not Active |  |
| c1ccc(Nc2ccc(Nc3ccccc3)cc2)cc1 | Not Active | Not Active | Not Active | Not Active | Not Active | Not Active |  |
| COc1cc2c3cc1Oc1cc(ccc1O)C[C@@H]1c4c(cc(OC)c(O)c4Oc4ccc(cc4)C[C@@H]3N(C)CC2)CC[N+]1(C)C.[Cl-] | Not Active | Not Active | Not Active | Not Active | Not Active | Not Active |  |
| NC(=O)N1c2ccccc2CCc2ccccc21 | Not Active | Not Active | Not Active | Not Active | Not Active | Not Active |  |
| O=C1CC[C@@H](N2C(=O)c3ccccc3C2=O)C(=O)N1 | Not Active | Not Active | Not Active | Not Active | Not Active | Not Active |  |
| Cc1onc(O)c1CC(N)C(=O)O (racemic) [(R,S)-AMPA] | Not Active | Not Active | Not Active | Not Active | Not Active | Not Active |  |
| Cc1ccc2cc3c(ccc4ccccc43)c3c2c1CC3 [3-METHYLCHOLANTHRENE] |  | Not Active | Not Active | Not Active | Not Active |  | IC50 ([1]; read-out: IC50): 25200 nM |
| CC[C@@]1(O)C[C@H](O[C@H]2C[C@H](N(C)C)[C@H](O[C@H]3C[C@H](O)[C@H](O[C@H]4CCC(=O)[C@H](C)O4)[C@H](C)O3)[C@H](C)O2)c2c(cc3c(c2O)C(=O)c2c(O)cccc2C3=O)[C@H]1C(=O)OC [ACLARUBICIN] | Not Active | Not Active | Not Active | Not Active | Not Active | Not Active |  |
| Nc1nc2c(ncn2COCCO)c(=O)[nH]1 [ACYCLOVIR] | Not Active | Not Active | Not Active |  | Not Active | Not Active |  |
| Cc1c(C)c2c(c(C)c1O)CC[C@@](C)(CCC[C@H](C)CCC[C@H](C)CCCC(C)C)O2 [ALPHA-TOCOPHEROL] | Not Active | Not Active | Not Active | Not Active | Not Active | Not Active |  |
| CN(C)c1nc(N(C)C)nc(N(C)C)n1 [ALTRETAMINE] | Not Active | Not Active | Not Active | Not Active | Not Active | Not Active |  |
| Nc1c(Br)cc(Br)cc1CN[C@H]1CC[C@H](O)CC1 [AMBROXOL] | Not Active | Not Active | Not Active | Not Active | Not Active | Not Active |  |
| NCCCCCC(=O)O [AMINOCAPROIC ACID] | Not Active | Not Active | Not Active |  | Not Active | Not Active |  |
| CCC1(c2ccc(N)cc2)CCC(=O)NC1=O (stereo not drawn) [AMINOGLUTETHIMIDE] | Not Active | Not Active | Not Active |  | Not Active | Not Active |  |
| Cc1ccc(/N=C/N(C)/C=N/c2ccc(C)cc2C)c(C)c1 [AMITRAZ] | Not Active | Not Active | Not Active | Not Active | Not Active |  |  |
| CCOC(=O)C1=C(COCCN)NC(C)=C(C(=O)OC)C1c1ccccc1Cl (stereo not drawn) [AMLODIPINE] | Not Active |  | Not Active | Not Active | Not Active | Not Active |  |
| COc1ccc(C[C@H]2NC[C@H](O)[C@H]2OC(C)=O)cc1 [ANISOMYCIN] | Not Active | Not Active | Not Active | Not Active | Not Active |  | Ki ([1]; insect cells): Not Active; Ki ([2]; cho-k1): Not Active; Ki [3]: Not Active; Ki [4]: Not Active; Ki [5]: Not Active |
| Nc1ncn([C@@H]2O[C@H](CO)[C@@H](O)[C@H]2O)c(=O)n1 [AZACITIDINE] | Not Active | Not Active | Not Active |  | Not Active | Not Active |  |
| CN(C)C(=O)Oc1cc(OC(=O)N(C)C)cc(C(O)CNC(C)(C)C)c1 (stereo not drawn) [BAMBUTEROL] | Not Active | Not Active | Not Active | Not Active | Not Active | Not Active |  |
| c1ccc2c(c1)c1cccc3ccc4cccc2c4c31 [BENZO[E]PYRENE] | Not Active | Not Active | Not Active | Not Active | Not Active | Not Active |  |
| CNCCc1ccccn1 [BETAHISTINE] | Not Active | Not Active | Not Active |  | Not Active | Not Active |  |
| CC(NC(C)(C)C)C(=O)c1cccc(Cl)c1 (stereo not drawn) [BUPROPION] | Not Active |  | Not Active | Not Active | Not Active | Not Active |  |

| Compound | IC50 ([1]; insect cells) | IC50 ([2]; cho-k1) | IC50 [3] | IC50 [4] | IC50 [5] | IC50 [6] | also measured |
| --- | --- | --- | --- | --- | --- | --- | --- |
| Cc1ccc(-c2cc(C(F)(F)F)nn2-c2ccc(S(N)(=O)=O)cc2)cc1 [CELECOXIB] | Not Active |  | Not Active |  | Not Active | Not Active | IC50 ([2]; read-out: IC50): 2430 nM; Ki ([2]; read-out: Ki): 1930 nM |
| O=C(O)CCCc1ccc(N(CCCl)CCCl)cc1 [CHLORAMBUCIL] | Not Active | Not Active | Not Active |  | Not Active |  |  |
| CN(C)CCCN1c2ccccc2Sc2ccc(Cl)cc21 [CHLORPROMAZINE] |  |  |  | Not Active | Not Active |  | IC50 ([1]; read-out: IC50): 8680 nM |
| C[C@H](CCC(=O)O)[C@H]1CC[C@H]2[C@@H]3[C@H](O)C[C@@H]4C[C@H](O)CC[C@]4(C)[C@H]3C[C@H](O)[C@]12C [CHOLIC ACID] | Not Active | Not Active | Not Active |  | Not Active | Not Active |  |
| CC1=C2C(=CO[C@H](C)[C@H]2C)C(O)=C(C(=O)O)C1=O [CITRININ] | Not Active | Not Active | Not Active | Not Active | Not Active |  |  |
| CC(C)(C)NCC(O)c1cc(Cl)c(N)c(Cl)c1 (stereo not drawn) [CLENBUTEROL] | Not Active | Not Active | Not Active | Not Active | Not Active |  |  |
| CC(C)(Oc1ccc(Cl)cc1)C(=O)O [CLOFIBRIC ACID] | Not Active | Not Active | Not Active |  | Not Active | Not Active |  |
| Clc1cccc(Cl)c1NC1=NCCN1 [CLONIDINE] | Not Active | Not Active | Not Active |  | Not Active | Not Active |  |
| CNCCCN1c2ccccc2CCc2ccccc21 [DESIPRAMINE] | Not Active |  | Not Active |  | Not Active | Not Active |  |
| CC(=O)O[C@@]12CO[C@@H]1C[C@H](O)[C@@]1(C)C(=O)[C@H](O)C3=C(C)[C@@H](OC(=O)[C@H](O)[C@@H](NC(=O)OC(C)(C)C)c4ccccc4)C[C@@](O)([C@@H](OC(=O)c4ccccc4)[C@H]21)C3(C)C.O.O.O [DOCETAXEL] | Not Active | Not Active | Not Active |  | Not Active | Not Active |  |
| COc1cc2nc(N3CCN(C(=O)C4COc5ccccc5O4)CC3)nc(N)c2cc1OC (stereo not drawn) [DOXAZOSIN] | Not Active |  | Not Active | Not Active | Not Active | Not Active |  |
| C[C@H]1c2cccc(O)c2C(=O)C2=C(O)[C@]3(O)C(=O)C(C(N)=O)=C(O)[C@@H](N(C)C)[C@@H]3[C@@H](O)[C@@H]21.O [DOXYCYCLINE] | Not Active | Not Active | Not Active |  | Not Active | Not Active |  |
| C[C@]12CC[C@@H]3c4ccc(O)cc4CC[C@H]3[C@@H]1CCC2=O [ESTRONE] | Not Active | Not Active | Not Active |  | Not Active | Not Active |  |
| N=C(N)NCCN1CCCCCCC1 [GUANETHIDINE] | Not Active | Not Active | Not Active |  | Not Active | Not Active |  |
| Nc1nc(N)nc(-c2cc(Cl)ccc2Cl)n1.O=C(O)/C=C\C(=O)O [IRSOGLADINE MALEATE] | Not Active | Not Active | Not Active |  | Not Active | Not Active |  |
| C[C@](N)(Cc1ccc(O)c(O)c1)C(=O)O [METHYLDOPA] |  | Not Active | Not Active |  | Not Active | Not Active | IC50 ([1]; read-out: IC50): 5180 nM |
| C[C@]12CCC(=O)C=C1CC[C@@H]1[C@@H]2CC[C@@]2(C)[C@H]1CC[C@]2(C)O [METHYLTESTOSTERONE] | Not Active | Not Active | Not Active |  | Not Active | Not Active |  |
| CC(O)CO (stereo not drawn) [PROPYLENE GLYCOL] | Not Active | Not Active | Not Active |  | Not Active | Not Active |  |
| CADMIUM ACETATE |  | Not Active | Not Active | Not Active | Not Active |  | Ki ([2]; cho-k1): Not Active; Ki [3]: Not Active; Ki [4]: Not Active; Ki [5]: Not Active |
| LEAD (II) ACETATE |  | Not Active | Not Active | Not Active | Not Active |  | Ki ([2]; cho-k1): Not Active; Ki [3]: Not Active; Ki [4]: Not Active; Ki [5]: Not Active |
| LIPOPOLYSACCHARIDE E. COLI O55:B5 |  | Not Active | Not Active | Not Active |  |  | IC50 ([1]; insect cells, read-out: IC50): 191 nM; Ki ([2]; cho-k1): Not Active; Ki [3]: Not Active; Ki [4]: Not Active; IC50 ([5]; read-out: IC50): 60.6 nM |
